44 compounds from article PMC7006637, “Design, synthesis and α-glucosidase inhibition study of novel embelin derivatives” (Journal of Enzyme Inhibition and Medicinal Chemistry, 2020) can be followed below.

Type in all cases: biochemical, Saccharomyces cerevisiae
Assay [1] concerns α-glucosidase. Nature of the assay: α-glucosidase inhibition assay (PNPG substrate, OD 405 nm). Conditions: for Inhibition rate: compound at 250 μM, 0.07 U/ml enzyme, 0.5 mM PNPG, pH 6.8, 37 °C; for α-glucosidase inhibitory activity (in words): SAR discussion; for IC50: more than eight concentrations, GraphPad Prism 7.0. Here is the method: The α-glucosidase inhibitory activity was determined on a Thermo Scientific Multiskan GO Microplate Reader. All compounds were dissolved in DMSO. p-Nitrophenol glucoside (PNPG) as a substrate and α-glucosidase (from Saccharomyces cerevisiae) were used for the bioassay. First, 0.7 U/ml α-glucosidase solution and 1 mmol/L PNPG solution in 0.1 M PBS (pH 6.8) were prepared. Next, 35 µl of 0.1 M PBS (pH 6.8), 10 µl of 0.7 U/ml α-glucosidase solution (final concentration: 0.07 U/ml), and 5 µl of sample solution were added to the 96-well plate. The mixture was pre-incubated for 10 min at 37 °C. Then, 50 µl of 1 mM PNPG (final concentration: 0.5 mM) was rapidly added to initiate the reaction. Then the 96-well plate was quickly transferred into the microplate reader, incubated at 37 °C for 30 min (1 min shake + 9 min incubation, repeated 3 times). After that, 50 µl of 1 M of Na2CO3 solution was added to each well to stop the reaction. The 96-well plate was quickly transferred into the microplate reader and shaken for 30 s. In the blank reference group, 5 µl DMSO replaced the sample solution, other operations were the same. The OD value was measured at 405 nm. The inhibition rate was calculated by Equation (1). (1) Inhibition rate (%) = [(A0−A1)/A0] × 100 where A0 is the OD of the control, and A1 is the OD of the sample. […] The IC50 values were calculated by GraphPad Prism 7.0 software.

Assay [2] has as its system α-glucosidase. The assay can be described thus: Enzyme kinetic study, Lineweaver–Burk double-reciprocal plots. Conditions: for Inhibition type: Lineweaver–Burk plots, PNPG 0.2-1 mM, enzyme 0.7 U/ml; for Ki: from plot of slope (Km/Vm) versus inhibitor concentration, PNPG substrate, read-out: Ki value (inhibitor binding with free enzyme). Here is the method:
The inhibition type of the enzyme was assayed by Lineweaver–Burk plots. A series of diluted inhibitor solutions was prepared, at constant α-glucosidase concentration (0.7 U/ml). The inhibition rates were measured by the above method with different concentrations of PNPG (1, 0.5, 0.4, 0.3, 0.25, and 0.2 mM). […] The kinetic data were expressed by Lineweaver–Burk double-reciprocal plots. […] Thus, these compounds bind not only with the free α-glucosidase but also with the α-glucosidase-PNPG complex. In other words, they inhibit the function of α-glucosidase by not only directly binding to free enzyme (EI), but also by interfering with the formation of the α-glucosidase-PNPG (ES) intermediate through producing an α-glucosidase-PNPG-inhibitor (ESI) complex in a non-competitive manner. The inhibition constant for the inhibitor binding with free enzyme (Ki) was determined from a plot of the slope (Km/Vm) versus the inhibitor concentration (Figure 6(A2–D2)), and the inhibition constant for the inhibitor binding with enzyme–substrate complex (Kis) was obtained from the vertical intercept (1/Vm) versus the inhibitor concentration (Figure 6(A3–D3))[34]. The results are collected in Table 3: the Kis values of all of them are smaller than their Ki values, which mean that they have higher affinity with the enzyme-substrate complex than with the free enzyme.

For assay [3], the system named is α-glucosidase. Nature of the assay: Inhibition mechanism: enzyme activity versus enzyme concentration plots. Conditions: constant PNPG 1 mM; α-glucosidase 0.00-1.05 U/ml. As to the method: The inhibition mechanism of 10d, 12d, and 15d was determined by the following method: A series of diluted inhibitor solutions was prepared, at constant PNPG concentration (1 mM). The inhibition rates were measured by the above method with different concentrations of α-glucosidase (0.00, 0.35, 0.7, and 1.05 U/ml). […] Because the chemical structures of compounds 9d and 10d are very similar, compound 10d was selected as a representative in the next mechanism studies. The inhibition mechanism of the selected compounds 10d, 12d, 15d, and embelin on α-glucosidase was investigated using PNPG as the substrate. The relationship between enzyme activity and concentration in the presence of different concentrations of selected compounds was studied. […] Therefore, the inhibition of compounds 10d, 12d, 15d, and embelin against α-glucosidase is reversible.

Turning to `CCCC1=C(OC)C(=O)C=C(OC)C1=O` [Compound 4a], the Inhibition rate in the assay on α-glucosidase [1] is 9.0%.
The same measure, in the same setting: the result for `CCCC1=C(O)C(=O)C=C(OC)C1=O` [Compound 4b] reads 10.4%.
The same measure, in the same setting: the result for `CCCC1=C(OC)C(OC)=CC(=O)C1=O` [Compound 4c] reads 14.9%.
Regarding `CCCC1=C(O)C(=O)C=C(O)C1=O` [Compound 4d], in the assay on α-glucosidase [1], the “α-glucosidase inhibitory activity (in words)” value is listed as “very low inhibitory effect” and the Inhibition rate came out at 18.1%.
In turn, `CCCCCC1=C(OC)C(=O)C=C(OC)C1=O` [Compound 5a] displayed an Inhibition rate with α-glucosidase [1] of 11.5%.
Compound `CCCCCC1=C(O)C(=O)C=C(OC)C1=O` [Compound 5b] displayed an Inhibition rate in the assay with α-glucosidase [1] of 14.9%.
Turning to `CCCCCC1=C(OC)C(OC)=CC(=O)C1=O` [Compound 5c], the Inhibition rate in the assay with α-glucosidase [1] turned out to be 16.4%.
`CCCCCC1=C(O)C(=O)C=C(O)C1=O` [Compound 5d]: in the assay with α-glucosidase [1], the “α-glucosidase inhibitory activity (in words)” value is recorded as “very low inhibitory effect” and the Inhibition rate worked out at 19.0%.
Compound `CCCCCCCC1=C(OC)C(=O)C=C(OC)C1=O` [Compound 6a] came in with an Inhibition rate in the assay on α-glucosidase [1] of 1.5%.
The same measure, in the same setting: next, `CCCCCCCC1=C(O)C(=O)C=C(OC)C1=O` [Compound 6b]: 5.4%; `CCCCCCCC1=C(OC)C(OC)=CC(=O)C1=O` [Compound 6c]: 16.1%.
The term IC50 denotes the concentration at which inhibition is half-maximal. High values mean lower potency, low ones higher potency. For `CCCCCCCC1=C(O)C(=O)C=C(O)C1=O` [Compound 6d], in the assay on α-glucosidase [1], the Inhibition rate worked out at 80.8% and half-maximal inhibition (IC50) was put at 127 µM.
For the compound `CCCCCCCCCC1=C(OC)C(=O)C=C(OC)C1=O` [Compound 7a], the Inhibition rate in the assay with α-glucosidase [1] was determined as 13.5%.
The same measure, in the same setting: the result for `CCCCCCCCCC1=C(O)C(=O)C=C(OC)C1=O` [Compound 7b] reads 20.9%; that for `CCCCCCCCCC1=C(OC)C(OC)=CC(=O)C1=O` [Compound 7c], 33.2%.
In the assay on α-glucosidase [1], `CCCCCCCCCC1=C(O)C(=O)C=C(O)C1=O` [Compound 7d] showed an Inhibition rate of 99.4% and an IC50 of 5.7 µM.
In the case of `CCCCCCCCCCCC1=C(OC)C(=O)C=C(OC)C1=O` [Compound 8a], the Inhibition rate in the assay on α-glucosidase [1] was 12.5%.
In the assay with α-glucosidase [1], `CCCCCCCCCCCC1=C(O)C(=O)C=C(OC)C1=O` [Compound 8b] gave an Inhibition rate of 12.0%.
The compound `CCCCCCCCCCCC1=C(OC)C(OC)=CC(=O)C1=O` [Compound 8c] gave an Inhibition rate in the assay with α-glucosidase [1] of 0.6%.
With `CCCCCCCCCCCCCC1=C(O)C(=O)C=C(O)C1=O` [Compound 9d], in the assay on α-glucosidase [1], the Inhibition rate amounted to 100% and the half-maximal inhibitory concentration (IC50) was 2.3 µM.
Broadly, the Ki is the equilibrium dissociation constant of an inhibitor or competing ligand from its target. Take `CCCCCCCCCCCCCCCC1=C(O)C(=O)C=C(O)C1=O` [Compound 10d]: in the assay with α-glucosidase [2], the Inhibition type result is “Mixed-type” and the Ki was 1.24 µM. In the assay on α-glucosidase [1], this compound came in with an Inhibition rate of 100% and an IC50 of 1.8 µM. Also, the “Inhibition mechanism (reversibility)” value with α-glucosidase [3] was “reversible”.
As to `COC1=CC(=O)C(OC)=C(CCC(C)C)C1=O` [Compound 11a], the Inhibition rate with α-glucosidase [1] is reported as 1.5%.
Still for that read-out and setting: next, `COC1=CC(=O)C(O)=C(CCC(C)C)C1=O` [Compound 11b]: 2.6%.
On the same count and under the same terms, next, `COC1=CC(=O)C(=O)C(CCC(C)C)=C1OC` [Compound 11c]: 3.3%.
As to `CC(C)CCC1=C(O)C(=O)C=C(O)C1=O` [Compound 11d], the Inhibition rate in the assay on α-glucosidase [1] worked out at 37.6%.
As for `CC(C)CCCC(C)CCC1=C(O)C(=O)C=C(O)C1=O` (centres unmarked) [Compound 12d], in the assay with α-glucosidase [2], the Inhibition type entry is on record as “Mixed-type” and the Ki is 3.71 µM. In the assay on α-glucosidase [1], this compound came in with an Inhibition rate of 100% and an IC50 of 3.3 µM. Besides, in the assay on α-glucosidase [3], the “Inhibition mechanism (reversibility)” value is “reversible”.
With `COCCCC1=C(OC)C(=O)C=C(OC)C1=O` [Compound 13a], the Inhibition rate with α-glucosidase [1] is 0%.
The same measure, in the same setting: next, `COCCCC1=C(O)C(=O)C=C(OC)C1=O` [Compound 13b]: 0%; `COCCCC1=C(OC)C(OC)=CC(=O)C1=O` [Compound 13c]: 0%; `COCCCC1=C(O)C(=O)C=C(O)C1=O` [Compound 13d]: 0%.
In turn, `COC1=CC(=O)C(OC)=C(CCC2CCCCC2)C1=O` [Compound 14a] registered an Inhibition rate with α-glucosidase [1] of 70.1%.
In turn, `COC1=CC(=O)C(O)=C(CCC2CCCCC2)C1=O` [Compound 14b] gave an Inhibition rate with α-glucosidase [1] of 71.1%.
Regarding `COC1=CC(=O)C(=O)C(CCC2CCCCC2)=C1OC` [Compound 14c], the Inhibition rate in the assay with α-glucosidase [1] stood at 74.7%.
With `O=C1C=C(O)C(=O)C(CCC2CCCCC2)=C1O` [Compound 14d], in the assay on α-glucosidase [1], the Inhibition rate was found to be 85.2% and the IC50 was found to be 45.3 µM.
As to `O=C1C=C(O)C(=O)C(CCCCCCCc2ccccc2)=C1O` [Compound 15d], in the assay on α-glucosidase [2], the Inhibition type entry is “Mixed-type” and the Ki was 2.4 µM. In the assay on α-glucosidase [1], this compound showed an Inhibition rate of 100% and an IC50 of 3.6 µM. The “Inhibition mechanism (reversibility)” value in the assay on α-glucosidase [3] is given as “reversible”.
`COC1=CC(=O)C(OC)=C(Cc2ccc3ccccc3c2)C1=O` [Compound 16a] returned an Inhibition rate in the assay with α-glucosidase [1] of 6.0%.
Still for that read-out and setting: the result for `COC1=CC(=O)C(O)=C(Cc2ccc3ccccc3c2)C1=O` [Compound 16b] reads 4.3%; that for `COC1=CC(=O)C(=O)C(Cc2ccc3ccccc3c2)=C1OC` [Compound 16c], 37.2%.
In the assay with α-glucosidase [1], `O=C1C=C(O)C(=O)C(Cc2ccc3ccccc3c2)=C1O` [Compound 16d] had an Inhibition rate of 81.4% and an IC50 of 74.8 µM.
With `COC1=CC(=O)C(OC)=C(Cc2ccc(-c3ccccc3)cc2)C1=O` [Compound 17a], the Inhibition rate with α-glucosidase [1] came out at 5.1%.
`COC1=CC(=O)C(O)=C(Cc2ccc(-c3ccccc3)cc2)C1=O` [Compound 17b] registered an Inhibition rate with α-glucosidase [1] of 14.3%.
With `COC1=CC(=O)C(=O)C(Cc2ccc(-c3ccccc3)cc2)=C1OC` [Compound 17c], in the assay with α-glucosidase [1], the Inhibition rate turned out to be 59.7%.
In the assay on α-glucosidase [1], `O=C1C=C(O)C(=O)C(Cc2ccc(-c3ccccc3)cc2)=C1O` [Compound 17d] gave an Inhibition rate of 99.5% and an IC50 of 11.2 µM.
As for `CCCCCCCCCCCC1=C(O)C(=O)C=C(O)C1=O` [Embelin, 2,5-dihydroxy-3-undecyl-1,4-benzoquinone], in the assay on α-glucosidase [2], the Inhibition type result is “Mixed-type” and the Ki came to 3.72 µM. Moreover, in the assay with α-glucosidase [1], the Inhibition rate was 100% and the IC50 is 4.2 µM. Moreover, the “Inhibition mechanism (reversibility)” value with α-glucosidase [3] is given as “reversible”.
